Measurements published in patent publication US4562176A, “Method and composition for treating cancer” (priority 1985, dated 1985).
In brackets after ≈: the same amount, converted by molar mass.

Tests used:
[1] = test system: DNA; test: DNA-drug binding by difference spectral (absorption and CD) techniques; details: difference spectral or ΔTm techniques
Source text: ^b Diff. Absorption Spectra is the calculated absorption spectra
obtained by subtracting the spectrum of the DNAbound analogue from the
spectrum of the free analogue, measured at 340-600 nm.
^c Diff. CD Spectra is the calculated CD Spectra obtained as the
difference of the DNAbound from the combined individual spectra of
analogues and DNA at 340-600 nm.
Medium: 0.01 M phosphate containing 10^-4 EDTA, buffer pH 7.0.
DNA-DRUG BINDING BY DIFFERENCE SPECTRAL AND THERMAL DEVATURATION OF DNA (ΔTm) TECHNIQUES
These experiments were performed according to the methods described by Sengupta et al., Cancer Chemother. Rep., 1974, 58, p. 35, Sengupta et al, J. Med. Chem., 1981, 24, p. 1052 and Sengupta et al, 1983, 26, p. 448, Sengupta et al, 1978, Biochem. Biophys Acta, 521, p. 89.

[2] = test system: P388 lymphocytic leukemia; test: In vivo P388 assay; design: species or system mice; details: ip days 1,5,9; for % ILS (percent increase in life span) / MST (median survival time) / Cure (over 60 day survivors): at optimum dose; for % ILS (percent increase in life span) / MST (median survival time): CDF1 male mice; for MST (median survival time): control MST 11.0 days; for Cure (over 60 day survivors): group of 7 CDF1 male mice, average of 2 experiments
Procedure: ^c 10^6 P388 cells implanted intraperitoneally on day 0 into a
group of 7 CDF1 male mice. Drugs were administered, also ip, in 10%
Me2 SO--saline on days 1,5,9. Test solutions were kept at 0-4.degree
C., protected from light.
These analogues were tested for antitumor activity against P388 lymphocytic leukemia in male CDF1 hybrid mice (Table 6). The tumor was implanted intraperitoneally (ip) with 10^6 cells. The drugs were administered once daily on days 1, 5, 9 beginning 1 day after implantation.

[3] = test system: human lymphoblastic leukemia cells (CCRF-CEM); test: In vitro growth inhibition of CCRF-CEM cells; type: cell-based; details: for In Vitro (CCRF-CEM) ID50: cells in log-phase growth, suspension culture, final growth medium 5% Me2SO
Procedure: ^b Human lymphoblastic luekemia cells in logphase growth and in a
suspension culture. Compounds were dissolved in Me2 SO medium, final
growth medium contained 5% Me2 SO.
In vitro growth inhibition of the analogues were assayed against human lymphoblastic leukemia cells (CCRF-CEM) in log phase. The most cyctoxic are AMD-OZN analogues 2b and 2g and AMD-OZL analogues 4a-4c. However, compared to AMD, they are several fold less cytotoxic to CEM-cells in vitro.

[4] = Solubility in distilled water
Procedure: SOLUBILITY OF ACTINOMYCIN D AND ANALOGUES 2b, 3b AND 4b IN DISTILLED WATER AT 20° C. AND 4° C.

In the case of `Cc1c2oc3c(C)ccc(C(=O)N[C@@H]4C(=O)N[C@H](C(C)C)C(=O)N5CCC[C@H]5C(=O)N(C)CC(=O)N(C)[C@@H](C(C)C)C(=O)O[C@@H]4C)c3nc-2c(C(=O)N[C@@H]2C(=O)N[C@H](C(C)C)C(=O)N3CCC[C@H]3C(=O)N(C)CC(=O)N(C)[C@@H](C(C)C)C(=O)O[C@@H]2C)cc1=O` [2-deamino AMD], the “DNA binding (in words)” value [1] is reported as “binds to DNA strongly by intercalation”.
In the case of `Cc1ccc(C(=O)N[C@@H]2C(=O)N[C@H](C(C)C)C(=O)N3CCC[C@H]3C(=O)N(C)CC(=O)N(C)[C@@H](C(C)C)C(=O)O[C@@H]2C)c2c1Oc1c(c(C(=O)N[C@@H]3C(=O)N[C@H](C(C)C)C(=O)N4CCC[C@H]4C(=O)N(C)CC(=O)N(C)[C@@H](C(C)C)C(=O)O[C@@H]3C)c3nc(-c4ccc(Cl)cc4)c(=O)oc3c1C)N2` [Compound 2e], the “% ILS (percent increase in life span)” value [2] is reported as 164%, the “MST (median survival time)” value [2] is reported as 29 days and the “Cure (over 60 day survivors)” value [2] is reported as 0/7. The “In Vitro (CCRF-CEM) ID50” value [3] was 1600 ng/mL.
With `Cc1ccc(C(=O)N[C@@H]2C(=O)N[C@H](C(C)C)C(=O)N3CCC[C@H]3C(=O)N(C)CC(=O)N(C)[C@@H](C(C)C)C(=O)O[C@@H]2C)c2c1Oc1c(c(C(=O)N[C@@H]3C(=O)N[C@H](C(C)C)C(=O)N4CCC[C@H]4C(=O)N(C)CC(=O)N(C)[C@@H](C(C)C)C(=O)O[C@@H]3C)c3nc(-c4c(F)c(F)c(F)c(F)c4F)c(=O)oc3c1C)N2` [Compound 2g] the “% ILS (percent increase in life span)” value [2] was 186%, the “MST (median survival time)” value [2] was 31.5 days and the “Cure (over 60 day survivors)” value [2] was 1/7. The “cytotoxicity to CEM cells (in words)” value ([3]; CCRF-CEM in log phase) was “most cyctoxic” and the “In Vitro (CCRF-CEM) ID50” value [3] was 640 ng/mL.
In the case of `Cc1ccc(C(=O)N[C@@H]2C(=O)N[C@H](C(C)C)C(=O)N3CCC[C@H]3C(=O)N(C)CC(=O)N(C)[C@@H](C(C)C)C(=O)O[C@@H]2C)c2c1Oc1c(c(C(=O)N[C@@H]3C(=O)N[C@H](C(C)C)C(=O)N4CCC[C@H]4C(=O)N(C)CC(=O)N(C)[C@@H](C(C)C)C(=O)O[C@@H]3C)c3nc(-c4c(F)c(F)c(F)c(F)c4F)oc3c1C)N2` [Compound 3c], the “% ILS (percent increase in life span)” value [2] is reported as 72%, the “MST (median survival time)” value [2] is reported as 19 days and the “Cure (over 60 day survivors)” value [2] is reported as 0/7. The “In Vitro (CCRF-CEM) ID50” value [3] was 12500 ng/mL.
For `Cc1ccc(C(=O)N[C@@H]2C(=O)N[C@H](C(C)C)C(=O)N3CCC[C@H]3C(=O)N(C)CC(=O)N(C)[C@@H](C(C)C)C(=O)O[C@@H]2C)c2c1Oc1c(c(C(=O)N[C@@H]3C(=O)N[C@H](C(C)C)C(=O)N4CCC[C@H]4C(=O)N(C)CC(=O)N(C)[C@@H](C(C)C)C(=O)O[C@@H]3C)c3nc(-c4ccc(Cl)cc4Cl)c(=O)oc3c1C)N2` [Compound 2f], the “% ILS (percent increase in life span)” value [2] was 155%, the “MST (median survival time)” value [2] was 28 days and the “Cure (over 60 day survivors)” value [2] was 0/7. For the same compound, the “In Vitro (CCRF-CEM) ID50” value [3] was 3200 ng/mL.
With `Cc1c2oc3c(C)c4oc(-c5c(F)c(F)c(F)c(F)c5F)nc4c(C(=O)N[C@@H]4C(=O)N[C@H](C(C)C)C(=O)N5CCC[C@H]5C(=O)N(C)CC(=O)N(C)[C@@H](C(C)C)C(=O)O[C@@H]4C)c3nc-2c(C(=O)N[C@@H]2C(=O)N[C@H](C(C)C)C(=O)N3CCC[C@H]3C(=O)N(C)CC(=O)N(C)[C@@H](C(C)C)C(=O)O[C@@H]2C)cc1=O` [Compound 4c] the “% ILS (percent increase in life span)” value [2] was 172%, the “MST (median survival time)” value [2] was 30 days and the “Cure (over 60 day survivors)” value [2] was 1/7. The “In Vitro (CCRF-CEM) ID50” value [3] was 630 ng/mL.
With `CCCCCCc1nc2c(C(=O)N[C@@H]3C(=O)N[C@H](C(C)C)C(=O)N4CCC[C@H]4C(=O)N(C)CC(=O)N(C)[C@@H](C(C)C)C(=O)O[C@@H]3C)c3c(c(C)c2oc1=O)Oc1c(C)ccc(C(=O)N[C@@H]2C(=O)N[C@H](C(C)C)C(=O)N4CCC[C@H]4C(=O)N(C)CC(=O)N(C)[C@@H](C(C)C)C(=O)O[C@@H]2C)c1N3` [Compound 2h] the “% ILS (percent increase in life span)” value [2] was 127%, the “MST (median survival time)” value [2] was 25 days and the “Cure (over 60 day survivors)” value [2] was 0/7. The “In Vitro (CCRF-CEM) ID50” value [3] was 2080 ng/mL.
For `Cc1c2oc3c(C)c4oc(-c5ccccc5)nc4c(C(=O)N[C@@H]4C(=O)N[C@H](C(C)C)C(=O)N5CCC[C@H]5C(=O)N(C)CC(=O)N(C)[C@@H](C(C)C)C(=O)O[C@@H]4C)c3nc-2c(C(=O)N[C@@H]2C(=O)N[C@H](C(C)C)C(=O)N3CCC[C@H]3C(=O)N(C)CC(=O)N(C)[C@@H](C(C)C)C(=O)O[C@@H]2C)cc1=O` [Compound 4b, 2-PHENYL-9,11-DIMETHYL-8-OXO-8H-OXAZOLO[4,5-b]PHENOXAZINE 4,6-BIS[CARBONYL-L-THREONYL-D-VALYL-L-PROLYLSARCOSYL-L-N-METHYLVALINE-(THR EONINE HYDROXYL)] LACTONE], the “antitumor activity against P388 (in words)” value ([2]; CDF1 mice) was “most active”, the “% ILS (percent increase in life span)” value [2] was 300% and the “MST (median survival time)” value [2] was 44 days. The “Cure (over 60 day survivors)” value [2] was 2/7, the “In Vitro (CCRF-CEM) ID50” value [3] was 310 ng/mL and the “activity against human cancer cells (in words)” value ([3]; human cancer cells) was “highest human antitumor effects”. For the same compound, the “relative solubility in water (in words)” value [4] was “more soluble in water at 4 °C than at 20 °C”, the “solubility in distilled water” value ([4]; 4° C.) was 11 mg/mL (≈ 8.1 mM) and the “solubility in distilled water” value ([4]; 20° C.) was 1.7 mg/mL (≈ 1.25 mM).
For `Cc1ccc(C(=O)N[C@@H]2C(=O)N[C@H](C(C)C)C(=O)N3CCC[C@H]3C(=O)N(C)CC(=O)N(C)[C@@H](C(C)C)C(=O)O[C@@H]2C)c2c1Oc1c(c(C(=O)N[C@@H]3C(=O)N[C@H](C(C)C)C(=O)N4CCC[C@H]4C(=O)N(C)CC(=O)N(C)[C@@H](C(C)C)C(=O)O[C@@H]3C)c3nc(-c4ccccc4Cl)c(=O)oc3c1C)N2` [Compound 2c], the “% ILS (percent increase in life span)” value [2] was 172%, the “MST (median survival time)” value [2] was 30 days and the “Cure (over 60 day survivors)” value [2] was 1/7. For the same compound, the “In Vitro (CCRF-CEM) ID50” value [3] was 1800 ng/mL.
In the case of `Cc1ccc(C(=O)N[C@@H]2C(=O)N[C@H](C(C)C)C(=O)N3CCC[C@H]3C(=O)N(C)CC(=O)N(C)[C@@H](C(C)C)C(=O)O[C@@H]2C)c2c1Oc1c(c(C(=O)N[C@@H]3C(=O)N[C@H](C(C)C)C(=O)N4CCC[C@H]4C(=O)N(C)CC(=O)N(C)[C@@H](C(C)C)C(=O)O[C@@H]3C)c3nc(-c4cccc(Cl)c4)c(=O)oc3c1C)N2` [Compound 2d], the “% ILS (percent increase in life span)” value [2] is reported as 164%, the “MST (median survival time)” value [2] is reported as 29 days and the “Cure (over 60 day survivors)” value [2] is reported as 0/7. The “In Vitro (CCRF-CEM) ID50” value [3] was 1600 ng/mL.
With `Cc1ccc(C(=O)N[C@@H]2C(=O)N[C@H](C(C)C)C(=O)N3CCC[C@H]3C(=O)N(C)CC(=O)N(C)[C@@H](C(C)C)C(=O)O[C@@H]2C)c2c1Oc1c(c(C(=O)N[C@@H]3C(=O)N[C@H](C(C)C)C(=O)N4CCC[C@H]4C(=O)N(C)CC(=O)N(C)[C@@H](C(C)C)C(=O)O[C@@H]3C)c3nc(-c4ccc5ccccc5c4)c(=O)oc3c1C)N2` [Compound 2i, 3-(2-NAPHTHYL)-10,12-DIMETHYL-2H,6H-OXAZINO[3,2-b]PHENOXAZINE-2-ONE 5,7-BIS[CARBONYL-L-THREONYL-D-VALYL-L-PROLYLSARCOSYL-L-N-METHYLVALINE-(THR EONINE HYDROXYL)] LACTONE] the “% ILS (percent increase in life span)” value [2] was 136%, the “MST (median survival time)” value [2] was 26 days and the “Cure (over 60 day survivors)” value [2] was 0/7. For the same compound, the “In Vitro (CCRF-CEM) ID50” value [3] was 1000 ng/mL.
For `Cc1ccc(C(=O)N[C@@H]2C(=O)N[C@H](C(C)C)C(=O)N3CCC[C@H]3C(=O)N(C)CC(=O)N(C)[C@@H](C(C)C)C(=O)O[C@@H]2C)c2c1Oc1c(c(C(=O)N[C@@H]3C(=O)N[C@H](C(C)C)C(=O)N4CCC[C@H]4C(=O)N(C)CC(=O)N(C)[C@@H](C(C)C)C(=O)O[C@@H]3C)c3nc(-c4ccccc4)oc3c1C)N2` [Compound 3b, 2-PHENYL-9,11-DIMETHYL-5H-OXAZOLO[4,5-b]PHENOXAZINE 4,6-BIS[CARBONYL-L-THREONYL-D-VALYL-L-PROLYLSARCOSYL-L-N-METHYL-VALINE-(TH REONINE HYDROXYL)] LACTONE], the “% ILS (percent increase in life span)” value [2] was 109%, the “MST (median survival time)” value [2] was 23 days and the “Cure (over 60 day survivors)” value [2] was 0/7. The “In Vitro (CCRF-CEM) ID50” value [3] was 9000 ng/mL.
